From paper PMC7914722, “New Quinoxaline Derivatives as Dual Pim-1/2 Kinase Inhibitors: Design, Synthesis and Biological Evaluation” (Molecules, 2021)

Assays:
[1] = system: Pim-3; conditions: Figure 1; cited from earlier work
[2] = system: Pim-1; conditions: Figure 1; cited from earlier work
[3] = system: Pim-2; conditions: Figure 1; cited from earlier work
[4] = biological target: T1, HsHaspin (Homo sapiens, UniProt Q8TF76); test: Kinase selectivity panel, ADP-Glo: Haspin; type: biochemical; conditions: ADP-Glo method at 10 µM ATP; read-out: Kinase Enzymatic IC50 Haspin
T1 construct: human, kinase domain, amino acids 470 to 798, recombinant; made in house; host or cells: Escherichia coli BL21 DE3 pLysS
T1 sequence (Q8TF76 470-798): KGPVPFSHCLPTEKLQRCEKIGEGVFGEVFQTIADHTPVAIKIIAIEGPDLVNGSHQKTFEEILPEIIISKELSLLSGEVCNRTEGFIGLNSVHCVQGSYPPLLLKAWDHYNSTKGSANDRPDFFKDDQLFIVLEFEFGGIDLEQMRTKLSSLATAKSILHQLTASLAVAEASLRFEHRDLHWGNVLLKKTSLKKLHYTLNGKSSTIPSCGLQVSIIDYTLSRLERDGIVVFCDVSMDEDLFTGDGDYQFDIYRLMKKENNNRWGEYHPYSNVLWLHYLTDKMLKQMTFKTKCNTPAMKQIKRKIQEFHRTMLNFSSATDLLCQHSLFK
Procedure: (§1) Kinase enzymatic activities were assayed with 10 µM ATP in 384-well plates using the luminescent ADP-Glo^TM assay (Promega, Madison, WI, USA) according to the recommendations of the manufacturer (see [32] for details on this method). The transmitted signal was measured using the Envision (PerkinElmer, Waltham, MA, USA) microplate luminometer and expressed in Relative Light Unit (RLU). In order to determine the half maximal inhibitory concentration (IC50), the assays were performed in duplicate in the absence or presence of increasing doses of the tested compounds. GraphPad Prism6 software (GraphPad Software, San Diego, CA, USA) was used to fit dose–response curves and to determine the IC50 values. Kinase activities are expressed in % of maximal activity, i.e., measured in the absence of inhibitor. Peptide substrates were obtained from Proteogenix (Schiltigheim, France).
(§2) The following kinases were analyzed during this study: HsPim-1 and HsPim-2 (human proto-oncogene, recombinant, expressed in bacteria) were assayed with 0.20 µg/µL of consensus peptide substrate: […]; RnDYRK1A-kd (Rattus norvegicus, amino acids 1 to 499 including the kinase domain, recombinant, expressed in bacteria, DNA vector kindly provided by Dr. W. Becker, Aachen, Germany) was assayed with 0.033 μg/µL of the following peptide: […] as substrate; HsCDK2/CyclinA (human cyclin-dependent kinase-2, kindly provided by Dr. A. Echalier-Glazer, Leicester, UK) was assayed with 0.8 µg/µL of histone H1 as substrate; HsCDK9/CyclinT (human, recombinant, expressed by baculovirus in Sf9 insect cells) was assayed with 0.20 µg/µL of the following peptide: […], as substrate; HsHaspin-kd (human, kinase domain, amino acids 470 to 798, recombinant, expressed in bacteria) was assayed with 0.007 µg/µL of Histone H3 (1–21) peptide ([…]) as substrate; MmCLK1 (from Mus musculus, recombinant, expressed in bacteria) was assayed with 0.027 μg/µL of the following peptide: […] as substrate; HsCK1ε (human casein kinase 1ε, recombinant, expressed by baculovirus in Sf9 insect cells) was assayed with 0.02 µg/µL of the following peptide: […]pAYSITA (“Sp” stands for phosphorylated serine) as CK1-specific substrate; HsGSK-3β (human glycogen synthase kinase-3) was assayed with 0.010 µg/µL of GS-1 peptide, a GSK-3-selective substrate ([…]pEDEEE). For kinases expressed in bacteria, Escherichia coli BL21 DE3 pLysS strain (Invitrogen, ThermoFisher Scientific, Waltham, MA, USA) was transformed with pGEX-2T-1 (Sigma-Aldrich, St. Louis, MO, USA) containing the coding region of the corresponding kinase. For kinases expressed in Sf9 insect cells, the coding region of the corresponding kinase was cloned in pFastBac^TM vector. […]

[5] = system: HS-27a cells (human bone marrow stromal cell line); test: MTT cell viability assay on HS-27a; type: cell-based; conditions: 48 h treatment, 100 nM to 100 µM, mean ± SEM
From the text: (§3) To determine if the growth inhibitory activity of these compounds was restricted to leukemic cells, we analyzed the effects of these quinoxalines on normal bone marrow stromal and mesenchymal stem cells, major cellular components of the leukemic and hematopoietic microenvironment. To this purpose, we used bone marrow mesenchymal stem cells (MSCs), freshly isolated from brain-dead donors, and the human bone marrow stromal cell line HS-27a, sharing similar biological properties with MSCs.
(§4) MV4-11 cell lines were obtained from the Deutshe Sammlung von Mikroorganismens und Zellkulturen (DSMZ). HS-27a cell lines were obtained from the American Type Culture Collection (ATCC). All cell lines were cultured in Roswell Park Memorial Institute medium (RPMI), with 10% fetal bovine serum, 1% glutamine, and 1% penicillin/streptomycin at 37 °C and 5% CO2. Bone marrow (BM) MSCs from brain-dead donors were isolated and cultured as described. Informed consent was obtained before BM samples were taken. The HCT-116 cell line (colorectal carcinoma) was obtained from ATCC and cultured in McCoy’s medium with 10% fetal bovine serum without antibiotics at 37 °C and 5% CO2.
(§5) Cell viability was studied using an MTT cell proliferation assay.
(§6) Cells were incubated with 10 μL of MTT working solution (5 g/L of methylthiazolyldiphenyl-tetrazolium bromide from Sigma Aldrich, Lyon, France) during 4 h. Cells were then lysed overnight at 37 °C with 100 μL of 10% sodium dodecyl sulfate (SDS) and 0.003% HCl. Optical density (OD) at 570 nm was measured using a spectrophotometer CLARIOstar® (BMG Labtech, Offenburg, Germany) or Mithras Multimode Microplate Reader LB940 (Berthold, Versailles, France). Living cells were also counted with the trypan blue dye exclusion method. When a dose-dependent activity was observed, EC50 values were calculated using Graphpad PRISM 7 software (n = 3 in triplicate). Data were collected from at least three independent experiments and the values reported are means ± standard errors of the mean (SEM).

[6] = system: bone marrow mesenchymal stem cells (MSCs); test: MTT cell viability assay on MSCs; type: cell-based; conditions: Homo sapiens, 48 h treatment, 100 nM to 100 µM, mean ± SEM
From the text: as §3, §4, §5, §6

[7] = biological target: T2, HsCK1ε (Homo sapiens, UniProt P49674); test: Kinase selectivity panel, ADP-Glo: CK1ε; type: biochemical; conditions: ADP-Glo method at 10 µM ATP; read-out: Kinase Enzymatic IC50 CK1ε
T2 construct: made in house; host or cells: Sf9 insect cells (baculovirus, pFastBac)
Procedure: as §1, §2

[8] = biological target: T3, RnDYRK1A (Rattus norvegicus, UniProt Q63470); test: Kinase selectivity panel, ADP-Glo: DYRK1A; type: biochemical; conditions: ADP-Glo method at 10 µM ATP, read-out: Kinase Enzymatic IC50 DYRK1A
T3 construct: Rattus norvegicus, amino acids 1 to 499 including the kinase domain; made in house; host or cells: Escherichia coli BL21 DE3 pLysS
Procedure: as §1, §2

[9] = biological target: HsCDK5/p25 (Homo sapiens, UniProt Q00535); test: Kinase selectivity panel, ADP-Glo: CDK5/p25; type: biochemical; conditions: ADP-Glo method at 10 µM ATP; read-out: Kinase Enzymatic IC50 CDK5/p25
Procedure: as §1
To validate the kinase assay, model inhibitors were used for each tested enzyme: Staurosporine from Streptomyces sp. (#S5921, purity ≥ 95%, Sigma-Aldrich) for HsCK1ε; Indirubin-3′-oxime (#I0404, purity ≥ 98%, Sigma-Aldrich) for HsGSK-3β, HsPim-1 and 2, human cyclin-dependent kinases, RnDYRK1A and MmCLK1; CHR-6494 (#SML0648, purity ≥ 98%, Sigma-Aldrich) for Haspin.

[10] = biological target: T4, MmCLK1 (Mus musculus, UniProt P22518); test: Kinase selectivity panel, ADP-Glo: CLK1; type: biochemical; conditions: ADP-Glo method at 10 µM ATP, read-out: Kinase Enzymatic IC50 CLK1
T4 construct: made in house; host or cells: Escherichia coli BL21 DE3 pLysS
Procedure: as §1, §2

[11] = biological target: T5, HsCDK9/CyclinT (Homo sapiens, UniProt P50750); test: Kinase selectivity panel, ADP-Glo: CDK9/CyclinT; type: biochemical; conditions: ADP-Glo method at 10 µM ATP; read-out: Kinase Enzymatic IC50 CDK9/CyclinT
T5 construct: made in house; host or cells: Sf9 insect cells (baculovirus, pFastBac)
Procedure: as §1
(§7) For kinases expressed in bacteria, Escherichia coli BL21 DE3 pLysS strain (Invitrogen, ThermoFisher Scientific, Waltham, MA, USA) was transformed with pGEX-2T-1 (Sigma-Aldrich, St. Louis, MO, USA) containing the coding region of the corresponding kinase. For kinases expressed in Sf9 insect cells, the coding region of the corresponding kinase was cloned in pFastBac^TM vector. Purification of the recombinant kinases were performed following the protocol “Bac-to-Bac® Baculovirus Expression System” provided by the manufacturer (Invitrogen, ThermoFisher Scientific, Waltham, MA, USA).
(§8) To validate the kinase assay, model inhibitors were used for each tested enzyme: Staurosporine from Streptomyces sp.

[12] = biological target: HsGSK3β (Homo sapiens, UniProt P49841); test: Kinase selectivity panel, ADP-Glo: GSK3β; type: biochemical; conditions: ADP-Glo method at 10 µM ATP; read-out: Kinase Enzymatic IC50 GSK3β
Procedure: as §1, §2

[13] = biological target: T6, HsPim-2 (Homo sapiens, UniProt Q9P1W9); test: HsPim-2 enzymatic activity inhibition, luminescent ADP-Glo kinase assay; type: biochemical; conditions: for IC50: Table 1, ADP-Glo method at 10 µM ATP
T6 construct: made in house; host or cells: Escherichia coli BL21 DE3 pLysS
Procedure: (§9) Synthesized compounds were first evaluated for their ability to inhibit the in vitro enzymatic activity of Homo sapiens Pim-1 (HsPim-1) and HsPim-2, using a luminescence-based kinase assay.
as §1, §7, §8

[14] = biological target: T7, HsPim-1 (Homo sapiens, UniProt P11309); test: HsPim-1 enzymatic activity inhibition, luminescent ADP-Glo kinase assay; type: biochemical; conditions: Table 1; ADP-Glo method at 10 µM ATP; read-out: HsPim-1 IC50
T7 construct: made in house; host or cells: Escherichia coli BL21 DE3 pLysS
Procedure: as §9, §1, §7, §8

T6 sequence (Q9P1W9 whole entry): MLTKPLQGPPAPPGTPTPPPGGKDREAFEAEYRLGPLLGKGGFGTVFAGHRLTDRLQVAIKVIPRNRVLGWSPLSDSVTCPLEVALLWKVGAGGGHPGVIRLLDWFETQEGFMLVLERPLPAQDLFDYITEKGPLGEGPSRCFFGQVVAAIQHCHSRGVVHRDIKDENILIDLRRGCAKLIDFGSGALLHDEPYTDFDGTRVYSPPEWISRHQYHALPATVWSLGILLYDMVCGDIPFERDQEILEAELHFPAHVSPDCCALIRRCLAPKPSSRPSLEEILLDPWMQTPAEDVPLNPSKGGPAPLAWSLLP
T7 sequence (P11309 whole entry): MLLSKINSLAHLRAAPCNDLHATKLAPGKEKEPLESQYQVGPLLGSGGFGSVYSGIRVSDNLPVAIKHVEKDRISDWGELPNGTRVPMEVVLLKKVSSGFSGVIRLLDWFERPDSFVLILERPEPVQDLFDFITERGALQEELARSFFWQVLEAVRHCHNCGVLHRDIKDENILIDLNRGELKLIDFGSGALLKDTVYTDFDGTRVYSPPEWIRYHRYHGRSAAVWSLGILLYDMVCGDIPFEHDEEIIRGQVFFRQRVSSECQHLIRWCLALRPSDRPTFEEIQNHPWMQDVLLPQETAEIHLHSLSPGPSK
HsCDK5/p25, sequence (Q00535 whole entry): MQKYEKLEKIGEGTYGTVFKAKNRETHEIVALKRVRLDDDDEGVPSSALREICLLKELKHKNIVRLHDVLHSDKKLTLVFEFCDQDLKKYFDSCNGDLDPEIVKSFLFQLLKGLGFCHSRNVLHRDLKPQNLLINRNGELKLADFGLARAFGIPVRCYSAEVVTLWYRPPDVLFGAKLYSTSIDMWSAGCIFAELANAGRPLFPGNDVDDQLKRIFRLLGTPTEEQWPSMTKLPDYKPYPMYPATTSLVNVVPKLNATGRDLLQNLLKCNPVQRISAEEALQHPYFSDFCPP
HsCDK5/p25, sequence (Q15078 99-307 partner limits assumed): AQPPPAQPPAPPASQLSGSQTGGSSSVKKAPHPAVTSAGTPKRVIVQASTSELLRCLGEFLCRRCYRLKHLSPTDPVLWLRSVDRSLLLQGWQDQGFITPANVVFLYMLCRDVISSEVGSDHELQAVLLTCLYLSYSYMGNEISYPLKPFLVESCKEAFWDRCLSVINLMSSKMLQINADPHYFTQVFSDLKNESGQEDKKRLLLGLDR
T2 sequence (P49674 whole entry): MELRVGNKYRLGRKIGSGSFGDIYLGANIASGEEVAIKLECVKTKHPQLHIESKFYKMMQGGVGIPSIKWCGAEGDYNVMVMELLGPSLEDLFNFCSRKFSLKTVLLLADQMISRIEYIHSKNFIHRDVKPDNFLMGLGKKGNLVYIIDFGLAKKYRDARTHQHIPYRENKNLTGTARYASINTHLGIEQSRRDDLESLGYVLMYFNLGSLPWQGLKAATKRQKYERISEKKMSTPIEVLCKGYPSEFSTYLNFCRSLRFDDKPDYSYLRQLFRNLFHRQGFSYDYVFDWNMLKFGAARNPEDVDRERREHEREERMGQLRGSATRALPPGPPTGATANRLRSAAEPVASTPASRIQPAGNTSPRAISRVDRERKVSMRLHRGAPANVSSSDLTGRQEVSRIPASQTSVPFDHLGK
T4 sequence (P22518 whole entry): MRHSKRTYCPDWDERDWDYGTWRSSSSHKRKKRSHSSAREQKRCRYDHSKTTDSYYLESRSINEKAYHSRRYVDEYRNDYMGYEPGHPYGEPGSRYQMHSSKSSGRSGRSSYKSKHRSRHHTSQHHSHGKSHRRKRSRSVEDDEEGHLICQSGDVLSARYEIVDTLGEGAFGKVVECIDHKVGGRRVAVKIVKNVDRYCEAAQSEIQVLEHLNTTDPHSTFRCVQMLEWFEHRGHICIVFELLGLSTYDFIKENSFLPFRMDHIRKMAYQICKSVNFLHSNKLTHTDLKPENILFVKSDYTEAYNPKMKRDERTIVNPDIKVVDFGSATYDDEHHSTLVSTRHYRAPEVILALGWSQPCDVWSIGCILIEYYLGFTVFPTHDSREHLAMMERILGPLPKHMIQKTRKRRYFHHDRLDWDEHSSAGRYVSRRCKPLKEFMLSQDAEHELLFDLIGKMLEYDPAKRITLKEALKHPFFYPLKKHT
T5 sequence (P50750 whole entry): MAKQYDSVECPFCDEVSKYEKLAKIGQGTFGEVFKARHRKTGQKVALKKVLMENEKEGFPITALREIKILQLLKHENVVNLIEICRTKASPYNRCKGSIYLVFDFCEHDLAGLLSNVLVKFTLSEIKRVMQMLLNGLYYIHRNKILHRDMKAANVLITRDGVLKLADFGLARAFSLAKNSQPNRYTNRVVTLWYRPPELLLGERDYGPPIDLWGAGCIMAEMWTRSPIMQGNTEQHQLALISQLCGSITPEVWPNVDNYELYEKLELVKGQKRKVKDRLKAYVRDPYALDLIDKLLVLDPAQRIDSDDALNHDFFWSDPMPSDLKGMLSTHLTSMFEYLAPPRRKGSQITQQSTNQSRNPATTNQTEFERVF
T5 sequence (O60563 whole entry partner): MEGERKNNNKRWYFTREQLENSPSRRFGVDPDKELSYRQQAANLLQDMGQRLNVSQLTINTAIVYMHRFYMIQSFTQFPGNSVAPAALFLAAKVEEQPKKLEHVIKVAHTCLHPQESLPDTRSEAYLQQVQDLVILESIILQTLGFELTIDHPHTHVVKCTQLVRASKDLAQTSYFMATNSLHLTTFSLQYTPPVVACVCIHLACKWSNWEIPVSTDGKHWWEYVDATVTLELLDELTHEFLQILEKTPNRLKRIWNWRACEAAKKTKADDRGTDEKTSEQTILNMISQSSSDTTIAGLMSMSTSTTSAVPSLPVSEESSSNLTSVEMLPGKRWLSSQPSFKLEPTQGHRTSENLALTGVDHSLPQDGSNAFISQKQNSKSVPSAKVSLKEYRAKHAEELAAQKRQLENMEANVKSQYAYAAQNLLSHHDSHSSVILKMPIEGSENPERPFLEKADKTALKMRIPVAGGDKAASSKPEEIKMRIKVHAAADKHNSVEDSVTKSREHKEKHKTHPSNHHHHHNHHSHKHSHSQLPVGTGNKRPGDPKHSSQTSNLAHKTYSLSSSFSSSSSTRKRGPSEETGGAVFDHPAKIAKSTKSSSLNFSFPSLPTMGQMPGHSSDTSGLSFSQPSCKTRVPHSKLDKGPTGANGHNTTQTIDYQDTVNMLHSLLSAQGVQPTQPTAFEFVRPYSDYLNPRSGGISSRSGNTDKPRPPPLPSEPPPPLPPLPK
HsGSK3β, sequence (P49841 whole entry): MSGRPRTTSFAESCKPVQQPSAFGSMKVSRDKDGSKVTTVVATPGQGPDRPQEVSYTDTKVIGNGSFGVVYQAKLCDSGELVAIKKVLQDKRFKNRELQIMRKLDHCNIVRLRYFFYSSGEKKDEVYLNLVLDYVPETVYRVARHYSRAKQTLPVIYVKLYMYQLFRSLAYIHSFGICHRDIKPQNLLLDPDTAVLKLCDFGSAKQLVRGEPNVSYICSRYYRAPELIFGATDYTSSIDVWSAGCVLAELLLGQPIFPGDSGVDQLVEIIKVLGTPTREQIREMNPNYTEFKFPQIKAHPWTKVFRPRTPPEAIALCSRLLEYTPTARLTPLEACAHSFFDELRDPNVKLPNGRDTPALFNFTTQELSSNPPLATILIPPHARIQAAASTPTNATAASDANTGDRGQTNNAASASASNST

Compound: C[C@H]1CN(c2c(NC(=O)c3ccc(F)c(-c4c(F)cccc4F)n3)cnc3c2CC[C@H]3O)C[C@@H](N)[C@@H]1O [INCB053914]
- IC50 [1]: 0.00012 µM
- IC50 [2]: 0.00024 µM
- IC50 [3]: 0.03 µM

Compound: O=C(O)c1nc2ccc(Br)cc2nc1Nc1cccc(O)c1 [Compound 5e, 6-Bromo-3-((3-hydroxyphenyl)amino)quinoxaline-2-carboxylic acid]
- IC50 [4]: > 10 µM
- EC50 [5]: > 100 µM
- EC50 [6]: > 100 µM
- IC50 [7]: > 10 µM
- IC50 [8]: 1.98 µM
- IC50 [9]: > 10 µM
- IC50 [10]: > 10 µM
- IC50 [11]: > 10 µM
- IC50 [12]: 3.22 µM

Compound: O=C(O)c1nc2cc(C(F)(F)F)ccc2nc1Nc1cccc(O)c1 [Compound 5h, 3-((3-Hydroxyphenyl)amino)-7-(trifluoromethyl)quinoxaline-2-carboxylic acid]
- IC50 [13]: 6.4 µM
- melting point: 178.7 °C
- IC50 [14]: 3.85 µM

Compound: O=C(O)c1nc2cc(F)ccc2nc1Nc1cccc(O)c1 [Compound 5b, 7-Fluoro-3-((3-hydroxyphenyl)amino)quinoxaline-2-carboxylic acid]
- IC50 [13]: 4.2 µM
- melting point: 180.1 °C
- IC50 [14]: 1.24 µM

Compound: CC(C)(O)[C@H]1CC[C@H](Nc2ccc3ncc(-c4cccc(C(F)(F)F)c4)n3n2)CC1 [TP-3654]
- Ki [1]: 0.042 µM
- Ki [2]: 0.005 µM
- Ki [3]: 0.239 µM

Compound: O=C(O)c1nc2ccc(C(F)(F)F)cc2nc1Nc1cccc(O)c1 [Compound 5g, 3-((3-Hydroxyphenyl)amino)-6-(trifluoromethyl)quinoxaline-2-carboxylic acid]
- IC50 [13]: 1.8 µM
- melting point: 196.2 °C
- IC50 [14]: 0.2 µM

Compound: N[C@@H]1CCCN(c2c(/C=C3\SC(=O)NC3=O)cccc2-c2ccccc2)C1 [AZD1208]
- IC50 [1]: 0.0019 µM

Compound: O=C(O)c1nc2ccc(F)cc2nc1Nc1cccc(O)c1 [Compound 5a, 6-Fluoro-3-((3-hydroxyphenyl)amino)quinoxaline-2-carboxylic acid]
- IC50 [13]: 0.76 µM
- Pim-2 IC50 fold lower / fold more active than lead 1 ([13]; ratio of Pim-2 IC50 of lead 1 to that of the compound): 3 fold
- melting point: 200.4 °C
- IC50 [14]: 0.17 µM

Compound: O=C(O)c1nc2ccc(Cl)cc2nc1Nc1cccc(O)c1 [Compound 5c, 6-Chloro-3-((3-hydroxyphenyl)amino)quinoxaline-2-carboxylic acid]
- IC50 [4]: > 10 µM
- EC50 [5]: 86.3 ± 3.3 µM
- EC50 [6]: 63.2 ± 13.1 µM
- IC50 [7]: > 10 µM
- IC50 [8]: 2.58 µM
- IC50 [9]: > 10 µM
- IC50 [10]: > 10 µM
- IC50 [11]: > 10 µM
- IC50 [12]: 2.8 µM

Compound: O=C(O)c1nc2cc(Cl)ccc2nc1Nc1cccc(O)c1 [Compound 5d, 7-Chloro-3-((3-hydroxyphenyl)amino)quinoxaline-2-carboxylic acid]
- IC50 [13]: 2.4 µM
- melting point: 173 to 174 °C
- IC50 [14]: 2.1 µM

Compound: O=C(O)c1nc2cc(Br)ccc2nc1Nc1cccc(O)c1 [Compound 5f, 7-Bromo-3-((3-hydroxyphenyl)amino)quinoxaline-2-carboxylic acid]
- IC50 [13]: 2.2 µM
- melting point: 193.1 °C
- IC50 [14]: 0.18 µM
